Measured values taken from patent publication US20180221295A1, “PHARMACEUTICAL COMPOSITION COMPRISING ELECTROHYDRODYNAMICALLY OBTAINED FIBRES, THE COMPOSITION HAVING IMPROVED RESIDENCE TIME ON THE APPLICATION SITE” (DERMTREAT APS, priority 2015, published 2018).

Key:
[1] = in vivo; cited from earlier work
[2] = in vivo; cited from earlier work; remark: listed apart in the source
[3] = In vitro drug release testing of fibres in Green's cell culture medium (HPLC); format: physicochemical; details: 1.2x1.2 cm samples in 5 mL Green's cell culture medium, 37° C., 30, 60 and 120 minutes
Method: Compositions: Same as in example 4.
Composition of Green's cell culture medium - Dulbecco's Modified Eagle's Medium: Ham's F12 medium in a 3:1 (v/v) ratio supplemented with 10% (v/v) FCS • 0.1 μM cholera toxin • 10 ng/ml of epidermal growth factor (EGF) • 0.4 μg/ml hydrocortisone • 0.18 mM adenine • 5 μg/ml insulin • 5 μg/ml transferrin • 2 mM glutamine • 0.2 μM triiodothyronine • 0.625 μg/ml amphotericin B • 100 IU/ml penicillin • 100 μg/ml streptomycin
Method of Analysis: • Samples of dimensions 1.2×1.2 cm were cut from each fibre composition and were placed in vials containing 5 mL of Green's cell culture medium. • All vials were incubated at 37° C. for 30, 60 and 120 minutes. • At those time points, 1.5 mL of cell culture media were removed from each vial • The concentration of clobetasol propionate released from the fibres was measured using high-performance liquid chromatography (HPLC).

## C/C=C(/C)C(=O)O[C@H]1C(C)=C[C@]23C(=O)[C@@H](C=C(CO)[C@@H](O)[C@]12O)[C@H]1[C@@H](C[C@H]3C)C1(C)C [Ingenol mebutate]
[1]
  Absorption through the skin: practically not absorbed through the skin

## C[C@]12CCC(=O)C=C1CC[C@@H]1[C@@H]2[C@@H](O)C[C@@]2(C)[C@H]1CC[C@]2(O)C(=O)CO [Hydrocortisone]
[2]
  Absorption from the gut: no significant absorption from the gut

## CCC(=O)O[C@]1(C(=O)CCl)[C@@H](C)C[C@H]2[C@@H]3CCC4=CC(=O)C=C[C@]4(C)[C@@]3(F)[C@@H](O)C[C@@]21C [clobetasol propionate]
[3]
  Release of clobetasol propionate from electrospun fibres: released after immersion in cell culture media
